Laboratory results: patent publication US20180177766A1, “THERAPEUTIC AGENT FOR NEUROTROPHIC KERATOPATHY” (SENJU PHARMACEUTICAL CO., LTD., priority 2015, published 2018)

What was measured:
[1] = tested on: corneal sensitivity of rabbit cornea after corneal flap production; assay: Decrease of corneal sensitivity after corneal flap production in rabbit (Cochet-Bonnet corneal esthesiometer); type: in vivo, Japanese white rabbit; settings: 0.005% ophthalmic solution, 50 μL instillation 4 times per day for 17 days, compared with vehicle ophthalmic solution, FIG. 2 and FIG. 3
Description: Male Japanese white rabbits (body weight 2.80-3.32 kg) purchased from KITAYAMA LABES Co., Ltd. were used. The animals were bred in a breeding room set to room temperature 23° C.±3° C., humidity 55%±10% RH, 12 hr lighting (08:00 lighting, 20:00 lights-out) from the arrival to the test end date. A solid feed (Labo R Stock, Nosan Corporation, 100-120 g/day) was given to the animals, and the animals were allowed to freely ingest tap water, passed through a sterilizer for animal drink, from an automatic-water supply apparatus. The test was performed on an approval from the animal care and use committee based on the Act on Welfare and Management of Animals (Act No. 105 of Oct. 1, 1973, final revision: Act No. 38 of Jun. 12, 2013) and the like.
As a test substance, [3-[2-[4-isopropyl-2-(4-trifluoromethyl)phenyl-5-thiazolyl]ethyl]-5-methyl-1,2-benzisoxazol-6-yl]oxyacetic acid (hereinafter to be referred to as compound A) was used. […]
Before production of corneal flap, the anterior ocular segment of the rabbits was macroscopically observed, and the rabbits showing no abnormality were selected. Then, using Cochet-Bonnet corneal esthesiometer (manufactured by LUNEAU), the corneal sensitivity at measurement locations 1 and 2 in FIG. 1 was measured, and the rabbits showing a corneal sensitivity threshold of not less than 15 mm at both measurement locations 1 and 2 were selected. […]

[2] = tested on: corneal epithelial disorder in GK rats; assay: Corneal epithelial disorder in spontaneously diabetic Goto-Kakizaki (GK) rat, fluorescein staining score; type: in vivo
Description: Male GK rats (20 rats) (Wakuta M., et al., Invest. Ophthalmol. Vis. Sci. 2007 48 590-596) purchased from CLEA Japan, Inc. were used. Corneal epithelial disorders associated with neuropathy were found in GK rats (Wang F., et al., Am J Pathol. 2012 181 2058-2066). GK rats are originated from Wistar rats and therefore, Wistar rats were used as normal control group (7 rats). The animals were bred in a breeding room set to room temperature 23° C.±3° C., humidity 55%±10% RH, 12 hr lighting (08:00 lighting, 20:00 lights-out) from the arrival to the test end date. The animals were allowed to freely ingest a solid feed (Labo MR Stock, Nosan Corporation) and freely ingest tap water, passed through a sterilizer for animal drink, from an automatic-water supply apparatus. The test was performed on an approval from the animal care and use committee based on the Act on Welfare and Management of Animals (Act No. 105 of Oct. 1, 1973, final revision: Act No. 38 of Jun. 12, 2013) and the like.
As a test substance, compound A was used. Compound A was dissolved in the vehicle (Table 2) to 0.005% and used as an ophthalmic solution. As a control group, a vehicle ophthalmic solution made solely of a vehicle (Table 2) and free of compound A was used.
GK rats were assigned to three groups of compound A ophthalmic solution administration group (4 rats) and non-administration group and vehicle ophthalmic solution administration group (8 for each group) using a statistical analysis software (SAS clinical package ver. 5.0, SAS Institute Japan), such that mean blood glucose concentration and mean corneal epithelial disorder score measured before instillation administration were uniform.
Compound A ophthalmic solution or vehicle ophthalmic solution was administered by instillation for 14 days. Instillation administration was performed 4 times per day at 10 μL/administration to both eyes with a micropipette. The administration was not performed on the non-administration group and Wistar rats.
0.1% Sodium fluoresceinate (Wako Pure Chemical Industries, Ltd.) (5 μL) was administered by instillation and fluorescein staining of the corneal epithelium was observed using a slit lamp, whereby the degree of corneal epithelial disorder was determined. To show the degree of abnormal findings in detail, one item was added to the diagnostic criteria of the McDonald-Shadduck method and used as the diagnostic criteria of the test (Table 3). The corneal epithelial disorder was scored for each of the three (upper, middle and lower) regions and the scores of the 3 regions were added up together. The corneal epithelial disorder was observed 2, 4, 6, 8, 11 and 15 days after the instillation administration.

PPARδ = target: T1, PPARδ (Homo sapiens, UniProt Q03181); settings: method described in Example 12 of WO 2003/033493; cited from earlier work
T1 sequence (Q03181 1-441): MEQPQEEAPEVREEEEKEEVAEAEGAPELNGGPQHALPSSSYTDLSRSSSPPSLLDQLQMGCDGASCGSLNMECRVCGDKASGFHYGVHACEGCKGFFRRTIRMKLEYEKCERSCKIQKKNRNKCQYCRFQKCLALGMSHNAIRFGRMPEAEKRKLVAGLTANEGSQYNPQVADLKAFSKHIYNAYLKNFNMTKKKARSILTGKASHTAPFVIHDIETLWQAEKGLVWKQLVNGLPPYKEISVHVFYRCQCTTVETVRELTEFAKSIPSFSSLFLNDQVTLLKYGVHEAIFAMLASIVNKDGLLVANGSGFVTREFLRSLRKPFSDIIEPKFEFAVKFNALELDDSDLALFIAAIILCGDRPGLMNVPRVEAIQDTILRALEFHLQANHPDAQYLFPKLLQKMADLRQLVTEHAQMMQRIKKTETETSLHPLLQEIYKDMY

SMILES: Cc1cc2c(CCc3sc(-c4ccc(C(F)(F)F)cc4)nc3C(C)C)noc2cc1OCC(=O)O [compound A, [3-[2-[4-isopropyl-2-(4-trifluoromethyl)phenyl-5-thiazolyl]ethyl]-5-methyl-1,2-benzisoxazol-6-yl]oxyacetic acid]
- recovery of corneal sensitivity at measurement locations 1 and 2 after corneal flap production [1]: recovered faster
- corneal epithelial disorder, result in words ([2]; 0.005% ophthalmic solution for 14 days, compared with non-administration and vehicle groups): improved
- corneal epithelial disorder score (sum of 3 regions) ([2]; 8 days after administration, 0.005% ophthalmic solution, 10 μL 4 times per day, both eyes): 4.06 ± 0.20
- corneal epithelial disorder score (sum of 3 regions) ([2]; 11 days after administration, 0.005% ophthalmic solution, 10 μL 4 times per day, both eyes): 4.00 ± 0.13
- corneal epithelial disorder score (sum of 3 regions) ([2]; 15 days after administration, 0.005% ophthalmic solution, 10 μL 4 times per day, both eyes): 4.00 ± 0.13
- corneal epithelial disorder score (sum of 3 regions) ([2]; before administration (baseline), mean ± spread): 4.63 ± 0.33
- PPARδ agonist activity (PPARδ): confirmed to have a PPARδ agonist activity
